These results are taken from publication PMC4669722, “Antitumour potential of BPT: a dual inhibitor of cdk4 and tubulin polymerization” (Cell Death & Disease, 2015).

Entries after “also recorded” stand apart in the source; their conditions may differ. Some results are limits rather than exact numbers.

The nature of one data set: MTD finding study. It counts as in vivo. To be noted: mice. On the procedure:
Swiss-albino mice were used to determine the MTD for the compound. BPT was weighed and mixed with 0.5% (w/v) carboxymethylcellulose and triturated with Tween-20 (secundum artum) with gradual addition of water to make up the final concentration. Care was taken not to exceed >0.25% of Tween-20 in the final formulation of the BPT. In this study, six animals per group were administered with BPT at different doses for 5 days (Q1D × 5) via intraperitoneal route. Animals were monitored for weight loss, morbidity symptoms and mortality up to 2 weeks by the end of treatment. Significant weight loss was considered when mean animal weight dropped by ⩾10% and was considered highly significant when the drop was ⩾20%.

Data set [1] concerns PC-3 (prostate; p53 null, pRb+). Put plainly: Cell proliferation (MTT) assay, PC-3. It counts as cell-based. The settings on record: Homo sapiens, 48 h, read-out: IC50 cell growth inhibition, PC-3. On the procedure: (§1) All 10 human cancer cell lines were maintained at 37 °C in 5% CO2 in RPMI-1640 medium, supplemented with 10% foetal calf serum and 100 μg/ml normocin. The 10 cancer cell lines used for screening were all obtained from ATCC (Manassas, VA, USA); they were the NSCLC (a form of cancer that is resistant to chemotherapy) lines: NCI-H460 (pRb^+, p53^+), A549 (pRb^+, p53^+), Calu-1 (pRb^+, p53-null), NCI-H1299 (pRb^+, p53-null), NCI-H358 (pRb-null, p53-null); the colon cancer line LS174T (pRb^+, p53^+); the prostate cancer line PC-3 (pRb^+, p53-null); the pancreatic cancer line MiaPaca (pRb^+, p53-mutant). The genotypes within brackets indicate the status of the tumour suppressor proteins pRb and p53. The mouse embryonic normal hepatic cell line (BNL CL2) and its SV40 large T-antigen-transformed counterpart cell line (BNL SV A.8) were also purchased from ATCC. The large T-antigen inactivates the tumour suppressor proteins p53 and pRb. The detailed procedure of cell proliferation (MTT) assay and IC50 determination was described previously.[32]

Another data set has as its target PDGFR. Put plainly: Kinase profiling (Millipore), PDGFR. It counts as biochemical. As to the method:
(§2) The in vitro kinase assays for testing against Cdk4-cyclin D1, Cdk2-cyclin A, Cdk1-cyclin B1 and Cdk9-cyclin T1 were performed in-house. The methodology and results have been reported previously.[20], [30], [31], [32], [45] The kinase profiling for 58 representative kinases was carrried out commercially at Millipore Bioscience Division, Livingston, UK.

The test system of the next data set is pBluescript plasmid DNA. Put plainly: EtBr displacement assay. It counts as binding. The settings on record: 1.3 μM EtBr, pH 7.4. As to the method: The assays were performed in a 96-well plate with clear bottom (Costar, Washington, DC, USA). The assay involved the addition of 10 μl of 10 × concentrated stock solution of compounds (dissolved in DMSO and further diluted in EtBr displacement assay buffer) to 90 μl of reaction mixture containing 6 μg of purified pBlueScript DNA and 1.3 μM EtBr in EtBr displacement assay buffer with final pH 7.4. Equivalent amounts of DMSO were added to the vehicle controls. In addition to control samples (DNA+EtBr), test samples (DNA+EtBr+test compounds), blank 1 (EtBr only), blank 2 (DNA only), wells containing DNA and compound were also prepared to test any change in the background fluorescence readings. The reduction in relative fluorescence counts was monitored ([…]) and recorded after 1 min equilibration time. Fascaplysin and actinomycin D, which are known to intercalate d-s DNA, were used as standard compounds in assay. The mean control and test readings were corrected by subtracting blank readings. The percentage fluorescence in the test samples in reaction with control samples was calculated by using following formula: […]

A further data set has as its system HCT-116 tumours. Put plainly: HCT-116 xenograft efficacy in SCID mice. It counts as in vivo. To be noted: 100 mpk intraperitoneal, 9 days, versus vehicle, P<0.05. As to the method: A group of 60 SCID (SCID strain-CBySmn.CB17-Prkdc^scid/J; The Jackson Laboratory, Bar harbor, ME, USA; Stock no. 001803) male mice weighing 18–25 g and 6–8 weeks old were used for the studies. Human colon carcinoma, HCT-116 (ATCC; cat. no. CCL-247) cells were grown in McCoy's 5A medium supplemented with 10% FBS (Sigma-Aldrich). The cultured cells were injected subcutaneously into the dorsal side of SCID mice at the dose of 6.6 × 10^6 cells in 0.2 ml of suspension. When the tumour growth reached to about 4–6 mm in diameter (over about 5 days), the animals were randomly divided into eight groups, each containing seven mice. The treatments were continued for 9 consecutive days intraperitoneally. Flavopiridol (2.5 mpk) was used as a positive control in this study. Tumour size was recorded at 2–5 day intervals. Tumour weight (mg) was estimated according to the formula for a prolate ellipsoid: (length (mm) × width (mm)^2) × 0.5) assuming specific gravity to be one and π to be 3. Tumour growth in compound treated animals is calculated as T/C (treated/control) × 100% and growth inhibition percent (% GI) was (100−% T/C).[48], [49], [50]

A short description of data set [2]: Body weight measurements in xenograft models. It counts as in vivo, SCID mice. On the procedure:
The body weights of animals in different treatment and control groups were monitored by taking the measurements daily during the treatment schedule. By considering the body weight at the start of the treatment as 100%, the percent weight loss was calculated on subsequent days of treatments.

Data set [3] deals with MiaPaCa (pancreatic; p53His273mut, pRb+). Put plainly: Cell proliferation (MTT) assay, MiaPaCa. It counts as cell-based. To be noted: Homo sapiens, MIA PaCa-2, 48 h, read-out: IC50 cell growth inhibition, MiaPaCa. On the procedure: as §1
Another data set concerns A549 and Calu-1 cells. Put plainly: Colony formation (clonogenic) assay, A549 and Calu-1. To be noted: p53+ A549 and p53-null Calu-1, 12-day experiment. It counts as cell-based, human. On the procedure: A549 and Calu-1 cells were plated at a concentration of 500 cells per well in 35 mm/6-well plates in 2 ml complete medium. The plates were incubated for 24 h stabilization and further incubated with a range of concentrations of fascaplysin and BPT for 24 h. Plates were then gently washed with PBS, replaced with fresh medium and incubated at 37 °C. After 10–12 days, cells were fixed in methanol:acetic acid (2 : 1) fixative for 10 min, washed, air dried and stained with 1% crystal violet. The colonies were evaluated by visual counts. The number of colonies in treated cultures was expressed as a percentage of the control cultures. All results represent means and standard deviations from at least three independent experiments.

The target of the next data set is Plk3 (Homo sapiens, UniProt Q9H4B4). Put plainly: Kinase profiling (Millipore), Plk3. It counts as biochemical. As to the method: as §2
For the next data set, the target named is Cdk2-cyclin A (Homo sapiens, UniProt P24941). Put plainly: In vitro kinase assay, Cdk2-cyclin A (in-house). The settings on record: three independent experiments; read-out: IC50 (mean±S.D.), Cdk2-cyclin A. It counts as biochemical. As to the method: as §2
In the next data set the target is Cdk7-cyclin H (Homo sapiens, UniProt P50613). Put plainly: Kinase profiling (Millipore), Cdk7-cyclin H. It counts as biochemical. As to the method:
as §2

Sequence of Cdk7-cyclin H (P50613 whole entry): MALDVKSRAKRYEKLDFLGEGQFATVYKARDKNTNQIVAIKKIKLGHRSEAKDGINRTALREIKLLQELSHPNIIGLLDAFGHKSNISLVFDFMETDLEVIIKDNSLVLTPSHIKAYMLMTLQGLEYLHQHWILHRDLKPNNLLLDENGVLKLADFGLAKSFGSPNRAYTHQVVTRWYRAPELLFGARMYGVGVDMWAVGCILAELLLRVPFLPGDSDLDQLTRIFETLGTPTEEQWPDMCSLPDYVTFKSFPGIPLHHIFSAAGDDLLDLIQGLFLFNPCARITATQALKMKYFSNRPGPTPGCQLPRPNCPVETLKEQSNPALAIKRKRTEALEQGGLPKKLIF
Sequence of Cdk7-cyclin H (P51946 whole entry partner): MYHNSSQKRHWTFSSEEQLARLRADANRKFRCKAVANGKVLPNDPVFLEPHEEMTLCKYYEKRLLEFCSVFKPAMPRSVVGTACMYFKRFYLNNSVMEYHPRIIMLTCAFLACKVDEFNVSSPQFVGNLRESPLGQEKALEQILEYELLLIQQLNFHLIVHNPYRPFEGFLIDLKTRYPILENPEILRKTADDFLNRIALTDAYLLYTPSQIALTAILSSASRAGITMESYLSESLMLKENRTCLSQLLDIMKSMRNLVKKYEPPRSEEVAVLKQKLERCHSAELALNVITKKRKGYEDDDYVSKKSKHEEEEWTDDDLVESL
Sequence of Cdk7-cyclin H (P51948 whole entry partner): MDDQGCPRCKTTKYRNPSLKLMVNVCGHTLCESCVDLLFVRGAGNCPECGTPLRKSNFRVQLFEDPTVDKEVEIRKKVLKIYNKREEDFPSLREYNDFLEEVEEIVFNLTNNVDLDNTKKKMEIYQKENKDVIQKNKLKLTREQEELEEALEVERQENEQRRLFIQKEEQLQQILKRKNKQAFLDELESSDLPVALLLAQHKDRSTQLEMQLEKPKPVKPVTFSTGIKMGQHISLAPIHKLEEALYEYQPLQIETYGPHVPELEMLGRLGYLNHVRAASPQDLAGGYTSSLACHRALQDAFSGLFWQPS
Sequence of Plk3 (Q9H4B4 whole entry): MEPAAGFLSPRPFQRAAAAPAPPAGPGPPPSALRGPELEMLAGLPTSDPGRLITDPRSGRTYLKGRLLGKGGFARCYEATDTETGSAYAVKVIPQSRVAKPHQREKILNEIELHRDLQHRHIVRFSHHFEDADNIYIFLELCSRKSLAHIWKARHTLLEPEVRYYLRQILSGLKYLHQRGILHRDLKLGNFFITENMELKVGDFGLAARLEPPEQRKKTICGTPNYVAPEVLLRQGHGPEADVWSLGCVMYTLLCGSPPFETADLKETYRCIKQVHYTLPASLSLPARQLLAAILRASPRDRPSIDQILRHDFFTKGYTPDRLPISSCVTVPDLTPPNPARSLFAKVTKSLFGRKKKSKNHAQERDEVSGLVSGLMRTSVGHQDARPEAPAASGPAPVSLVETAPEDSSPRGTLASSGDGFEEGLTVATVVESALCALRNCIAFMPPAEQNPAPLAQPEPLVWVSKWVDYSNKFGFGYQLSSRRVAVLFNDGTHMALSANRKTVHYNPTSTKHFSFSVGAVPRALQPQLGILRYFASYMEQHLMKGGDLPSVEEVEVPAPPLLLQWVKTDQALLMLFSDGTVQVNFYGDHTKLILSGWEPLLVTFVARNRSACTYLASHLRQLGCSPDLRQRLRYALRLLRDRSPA

`O=C(c1ccccc1-c1ccccc1)N1CCc2c([nH]c3ccccc23)C1` [BPT, 2-(biphenyl-2-carbonyl)-2,3,4,9-tetrahydro-1H-pyrido[3,4-b]indole] displayed a maximum-tolerated dose in “MTD finding study” of 1000 mg/kg. Further, the 50% inhibitory concentration (IC50) – broadly, the point on the concentration scale where inhibition reaches its midpoint – in data set [1] is 740 nM; against PDGFR it was more than 10 µM; in data set [3] it was 800 nM; at Plk3 it was more than 10 µM; on Cdk2-cyclin A, 831 ± 15.5 µM; against Cdk7-cyclin H, more than 10 µM. Further, the “EtBr displacement from DNA” value with pBluescript plasmid DNA is listed as “incapable of displacing; also recorded: does not displace ethidium bromide; also recorded: No EtBr displacement up to 100 μM ^a”. In addition, the tumour growth inhibition in the data set on HCT-116 tumours was ~ 80%. Besides, the “weight loss of treated animals” value in [2] (SCID mice-HCT116 tumour model, 100 mpk, of starting weight) is on record as less than 10%; in data set [2] (both tumour models (HCT-116 and NCI-H460)) it was “statistically insignificant weight loss”. Besides, the colony formation efficiency result in the data set on A549 and Calu-1 cells was “significant reduction”.
